Test results as given in patent publication US12186327B2, “Oral allopregnanolone compositions and methods of use” (Lipocine Inc., priority 2022, dated 2025).
≈ marks a conversion by molar mass, not a printed value. Read-outs that look alike come from different tables or passages of the source.

Columns and labels:
[1] = once daily 30 mg capsule, 14 day treatment; cited from earlier work
[2] = 30 mg capsule, cited from earlier work
[3] = biological target: a1b2g2 GABAA receptor (Homo sapiens, UniProt P14867+P47870); details: synaptic GABAA receptor; cited from earlier work
[4] = oral daily doses of 16-24 g for 14 days, human volunteers; cited from earlier work
[5] = Allopregnanolone solubility in SBE-β-CD solution; assay type: physicochemical; details: for solubility: aqueous with cosolvent or surfactant or cyclodextrin
Method: The solubilized fraction of allopregnanolone began to decline, as observed by precipitation, when allopregnanolone concentration was above 8 mg/ml. The amount of allopregnanolone in the cyclodextrin solution can only be enabled by up to about 0.6% w/w loading amount of the composition fill. Moreover, high cyclodextrin amounts required to solubilize allopregnanolone also present safety concerns. In some aspects, the compositions and dosage forms of this invention can comprise higher allopregnanolone loading amounts (>5 mg/ml or 5 mg/g) than ones formulated in non-encapsulated SBE-β-CD or any cyclodextrin solution composition.

[6] = in vivo; cited from earlier work

Chain of a1b2g2 GABAA receptor (P14867 28-456): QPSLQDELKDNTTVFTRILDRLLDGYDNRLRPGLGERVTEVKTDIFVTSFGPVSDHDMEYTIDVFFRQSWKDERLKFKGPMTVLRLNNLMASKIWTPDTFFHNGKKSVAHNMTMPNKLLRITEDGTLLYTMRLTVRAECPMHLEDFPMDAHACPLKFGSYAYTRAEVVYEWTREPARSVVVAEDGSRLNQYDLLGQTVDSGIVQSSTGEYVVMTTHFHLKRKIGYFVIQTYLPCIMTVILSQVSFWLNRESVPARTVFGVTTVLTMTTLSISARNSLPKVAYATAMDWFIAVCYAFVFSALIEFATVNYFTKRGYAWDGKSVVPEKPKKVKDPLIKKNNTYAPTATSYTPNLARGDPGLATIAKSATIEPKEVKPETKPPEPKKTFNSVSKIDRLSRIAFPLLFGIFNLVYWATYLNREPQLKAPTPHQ
Chain of a1b2g2 GABAA receptor (P47870 25-512 limits assumed): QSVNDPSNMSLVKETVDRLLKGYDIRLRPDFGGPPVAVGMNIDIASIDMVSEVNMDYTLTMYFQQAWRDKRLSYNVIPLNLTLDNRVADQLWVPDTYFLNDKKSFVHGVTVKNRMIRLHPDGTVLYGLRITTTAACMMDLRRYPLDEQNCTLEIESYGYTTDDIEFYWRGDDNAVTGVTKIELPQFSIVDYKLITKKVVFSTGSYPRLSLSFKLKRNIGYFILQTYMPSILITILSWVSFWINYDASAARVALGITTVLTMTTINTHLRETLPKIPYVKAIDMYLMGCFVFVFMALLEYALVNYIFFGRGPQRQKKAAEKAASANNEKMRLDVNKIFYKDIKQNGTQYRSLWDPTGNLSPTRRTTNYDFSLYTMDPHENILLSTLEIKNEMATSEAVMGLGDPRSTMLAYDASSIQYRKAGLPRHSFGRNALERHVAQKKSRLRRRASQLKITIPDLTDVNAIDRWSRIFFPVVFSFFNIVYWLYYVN
Chain of a1b2g2 GABAA receptor (P18507 40-475 partner): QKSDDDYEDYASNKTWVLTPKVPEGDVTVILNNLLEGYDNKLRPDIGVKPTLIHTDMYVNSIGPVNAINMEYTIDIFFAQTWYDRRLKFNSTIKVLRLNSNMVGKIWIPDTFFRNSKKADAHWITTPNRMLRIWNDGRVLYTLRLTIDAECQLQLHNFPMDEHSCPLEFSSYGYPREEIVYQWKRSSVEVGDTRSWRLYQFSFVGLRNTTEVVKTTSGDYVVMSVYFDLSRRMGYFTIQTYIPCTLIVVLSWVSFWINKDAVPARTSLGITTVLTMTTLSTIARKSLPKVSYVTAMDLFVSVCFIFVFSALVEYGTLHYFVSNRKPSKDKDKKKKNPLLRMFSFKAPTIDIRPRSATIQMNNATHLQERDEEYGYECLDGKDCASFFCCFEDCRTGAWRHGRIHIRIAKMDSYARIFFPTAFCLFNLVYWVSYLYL

For `C[C@@]1(O)CC[C@H]2[C@H](CC[C@@H]3[C@@H]2CC[C@]2(C)[C@@H](C(=O)Cn4cc(C#N)cn4)CC[C@@H]32)C1` [ZURANOLONE], the “efficacy in postpartum depression” value [1] is given as “acceptable efficacy”, the Cmax ([2]; single dose with a standard fat meal) is given as “about 64 ng/ml” and the Cmax ([2]; single dose, fasted condition) is given as “about 23 ng/ml”. For the same compound, the “less potent than allopregnanolone, based on a1b2g2 Qpatch EC50” value [3] was “about 33%”.

For hydroxy propyl-β-CD, the digestive problems [4] is listed as “increased incidence of soft stools and diarrhea”.

In the case of `CC(=O)[C@H]1CC[C@H]2[C@@H]3CC[C@H]4C[C@H](O)CC[C@]4(C)[C@H]3CC[C@]12C` [allopregnanolone, 3α-hydroxy-5α-pregnan-20-one], the solubility ([5]; cyclodextrin (SBE-β-CD) solution, read-out: allopregnanolone concentration above which the solubilized fraction declined (precipitation)) is reported as greater than 8000 µg/mL, the solubility ([5]; in 24% w/v non-encapsulated SBE-β-CD solution, read-out: allopregnanolone solubility) is reported as roughly 6000 µg/mL (≈ 18.8 mM) and the “loading amount of the composition fill enabled in cyclodextrin solution” value ([5]; cyclodextrin solution) is reported as “up to 0.6 % w/w”. The oral bioavailability [6] was “low”.
